# Results taken from patent publication US8691195B2, “Peptide having activity of transforming growth factor and production method therefor” (Caregen Co., Ltd., priority 2009, dated 2014).
# Ends that are not written are not given here.
# How the values were obtained:
# [1] = Heat stability: residual activity by MTT assay after storage at 40° C.; type: physicochemical; settings: days 0-100, MTT assay, FIG. 3
# Method: To evaluate heat stability of the peptide 2 prepared in Example 1, the peptide 2 was dissolved in 50 mM Tris-HCl buffer (pH 8.0) to a concentration of 10 μg/ml. Recombinant TGF-β1 (Sigma) as control was produced from E. coli and dissolved in 50 mM Tris-HCl buffer (pH 8.0) at a concentration of 1 μg/ml. The prepared solutions were introduced into glass vials and kept to stand at 40° C. Afterwards, the solutions were taken on days 0, 1, 10, 25, 50, 75 and 100, and subjected to MTT assay (Scudiero, D. A., et al., Cancer Res., 48: 4827-4833 (1988)) to determine residual activities of the peptide and recombinant TGF-β1 (FIG. 3).
# C57BL/6 Mice melanocytes = test: Inhibition of melanin generation in α-MSH-treated melanocytes; type: cell-based; settings: 200 μg/ml α-MSH alone (positive control), 3 days, FIG. 4
# Method: To evaluate reduction of melanin pigment by the peptide 2 synthesized in Example 1, C57BL/6 Mice melanocytes cultured were incubated with α-MSH (melanocyte stimulating hormone; Sigma) and then with the peptide in the determined concentrations to measure inhibition effects on melanin generation. Mice melanocytes were cultured in DMEM (Dulbecco's modified Eagle's media; Sigma) supplemented with 10% FBS (fetal bovine serum; Sigma) at 37° C. under 5% CO2 conditions. Cells were cultured in a 24-well culture plate with a density of 1×10^5 cells/well and their adhesion to the plate was observed. Then, cells were incubated with each test group for 3 days: (a) a solvent as control; (b) 200 μg/ml α-MSH as a positive control; and (c) 200 μg/ml α-MSH plus 1 μg/ml or 10 μg/ml peptide 2. The test materials were prepared in such a manner that each component was dissolved in medium solvent and diluted at an equivalent rate to the aforementioned concentration using a mixed solvent of propylene glycol:ethanol:distilled water (5:3:2). After removing culture medium by centrifugation, melanin contents in each group could be observed with naked eye. […]
# More specifically, cells were washed with PBS (phosphate buffered saline) and treated with 1 N sodium hydroxide. The resultants were analyzed to measure their absorbance values at 400 nm. […]
# tyrosinase = test: Tyrosinase activity in α-MSH-treated B16F10 cells (L-DOPA, absorbance at 405 nm); type: cell-based; settings: 4 days, FIG. 6
# Method: For verifying effects on skin whitening of the peptide synthesized in Example 1 and TGF-β, cells were treated with α-MSH and the inhibition in melanin generation was measured. B16F10 cells (Korean Cell Line Bank) were inoculated in a density of 1×10^5 cells/well and cultured in DMEM for 3 days. After cell adhesion was observed, medium was changed with a fresh medium containing 2% serum. Cells were incubated with each test group for 4 days: (a) no treatment as negative control; (b) 200 μg/ml α-MSH as a positive control; and (c) 200 μg/ml α-MSH plus 1 μg/ml or 10 μg/ml peptide 2. […] Subsequently, cells were harvested and treated with a lysis buffer to extract total proteins. The extracted proteins were quantitated by the BCA (bicinchonic acid) method. For each experiment group, 90 μl of protein solution and 10 μl of L-DOPA (L-3,4-dihydroxyphenylalanine; Sigma) were added and reacted for 30 min at 37° C. The resultants were analyzed to measure their absorbance values at 405 nm for evaluating tyrosinase activities.
# [2] = test system: TRP1 (tyrosinase-related protein-1); test: RT-PCR of TRP1 mRNA in α-MSH-treated B16F10 melanoma cells; type: cell-based; settings: 200 μg/ml α-MSH plus 10 μg/ml peptide, 4 days, FIG. 8
# Method: (§1) To more clearly check activities of TGF-mimicking peptide on skin whitening in α-MSH-treated B16F10 melanoma cells, mRNA level of TRP1 (tyrosinase-related protein-1), TRP2 and MITF (microphthalmia-associated transcription factor) was measured using RT-PCR.
# (§2) First, B16F10 cells were plated at a 6-well plate in a density of 1×10^5 cells/well and cultured for 3 days. After cell adhesion was observed, medium was changed with a fresh medium containing 2% serum. Cells were incubated with each test group for 4 days: (a) no treatment as negative control; (b) 200 μg/ml α-MSH as a positive control; and (c) 200 μg/ml α-MSH plus 10 μg/ml peptide 2.
# (§3) Subsequently, mRNA were extracted from cells and RT-PCR was carried out using primers for TRP1, TRP2 and MITF. The primer sequence is as follows: TRP1 F-primer, 5′-[…]-3′ and TRP1 R-primer, 5′-[…]-3′; TRP2 F-primer, 5′-[…]-3′ and TRP2 R-primer, 5′-[…]-3′; and MITF F-primer, 5′-[…]-3′ and MITF R-primer, 5′-[…]-3′.
# TRP2 = test: RT-PCR of TRP2 mRNA in α-MSH-treated B16F10 melanoma cells; type: cell-based; settings: 200 μg/ml α-MSH plus 10 μg/ml peptide, 4 days, FIG. 8
# Method: as §1, §2, §3
# B16F10 melanoma cells = test: Melanosome changes / cell morphology in α-MSH-treated B16F10 melanoma cells; type: cell-based; settings: 200 μg/ml α-MSH plus 10 μg/ml peptide, 4 days, FIG. 7
# Method: as §2
# procollagen = test: Procollagen production in NIH3T3 fibroblasts (Procollagen ELISA kit); type: cell-based; settings: NIH3T3, 1 μg/ml or 10 μg/ml, 72 hr, FIG. 9
# Method: (§4) NIH3T3 cells cultured for 48 hr were incubated with the peptide of the present invention with a concentration of 1 μg/ml or 10 μg/ml for 72 hr, respectively. The levels of procollagen and fibronectin, indicators to show the improvement in skin wrinkle, were examined. The quantification was performed using Procollagen ELISA kit (Takara, Japan) and Fibronectin ELISA kit (CHEMICON, USA).
# [3] = test system: MITF (microphthalmia-associated transcription factor); test: RT-PCR of MITF mRNA in α-MSH-treated B16F10 melanoma cells; type: cell-based; settings: 200 μg/ml α-MSH plus 10 μg/ml peptide, 4 days, FIG. 8
# Method: as §1, §2, §3
# fibronectin = test: Fibronectin production in NIH3T3 fibroblasts (Fibronectin ELISA kit); type: cell-based; settings: NIH3T3, 1 μg/ml or 10 μg/ml, 72 hr, FIG. 10
# Method: as §4
substance,measurement,setting,value
"recombinant TGF-β1: Recombinant TGF-β1 (Sigma) produced from E. coli, used as control",residual activity over time (heat stability),[1]; 1 μg/ml in 50 mM Tris-HCl buffer (pH 8.0),sharply decreased with the lapse of time
"α-MSH: melanocyte stimulating hormone (Sigma), inducer of melanin generation, positive control (SYSMEHFRWGKPV; ends and bridges not checked; UniProt P01189 138-150, looked up) [reference compound]",melanin content,C57BL/6 Mice melanocytes,strikingly increased
same,tyrosinase activity,tyrosinase; 200 μg/ml α-MSH only,highly elevated level
NH2-Gly-Arg-Gly-Asp-Tyr-Ile-Trp-Ser-Leu-Asp-Thr-Gln-OH (H-GRGDYIWSLDTQ-OH) [peptide 2],residual activity over time (heat stability),[1]; 10 μg/ml in 50 mM Tris-HCl buffer (pH 8.0),not to be decreased over time
same,mRNA level of TRP1,[2],inhibit
same,reduction of tyrosinase activity,"tyrosinase; 200 μg/ml α-MSH plus 1 μg/ml or 10 μg/ml peptide, versus α-MSH only",about 30%
same,mRNA level of TRP2,TRP2,inhibit
same,α-MSH-induced melanosomes,B16F10 melanoma cells,eliminated
same,production of procollagen,procollagen,remarkably promote
same,mRNA level of MITF,[3],inhibit
same,level of fibronectin,fibronectin,increase
